Results taken from patent US10905148B2, “Systems and methods for monitoring of blood lactate and targeting of blood lactate via nutritional support” (Run Them Sweet LLC, priority 2012, dated 2021).

Legend:
[1] = tested on: lipases and esterases in human plasma; conditions: cited from earlier work
[2] = infusions of 2N Na+-Pyruvate into swine; cited from earlier work
[3] = cited from earlier work
[4] = tested on: lactate dehydrogenase in red blood cells and the lung parenchyma; conditions: due to lactate dehydrogenase in red blood cells and lung parenchyma; cited from earlier work
[5] = aqueous conditions; cited from earlier work
[6] = Osmolality of infusion solutions; type: physicochemical
Experimental: In its simplest form, the MCC cocktail would be sodium-L-(+)-Lactate prepared by titrating L-(+)-Lactic acid with NaOH. The following describe such procedures: (24, 52, 55-57). Briefly, the MCC infusion cocktail is prepared by mixing concentrated (30-88%) L-(+)-lactic acid solution (e.g., Sigma-Aldrich or PCCA) in 2 N NaOH to pH 4.8. In the example provided, the starting point is a 30% stock lactic acid solution: 300 g 30% lactic acid stock solution is titrated with 133.3 g 2N NaOH and diluted to 1,000 ml with water. This will produce a 11.2% weight-by-volume (“w/v”) MCC cocktail (sodium-L-(+)-Lactate) with an osmolality approximating 2,000 mOsm/l. Depending on the stock lactic acid solution used, a NaOH titrating solution>2 N may be necessary to neutralize stock lactic acid without exceeding the intended volume. Regardless of the specifics of acid titration, a 1.72% Na^+-lactate aqueous solution is isosmotic (308 mOsm/l); consequently, as initially mixed the above described MCC is far too concentrated to be given in a peripheral vein and will need to be diluted to less than 1,000 mOsm/l (a 5.6% Na^+-lactate solution). In a peripheral arm vein and a 5.0-5.6% Na^+-lactate MCC should be given with normal (0.9%, 308 mOsm/l) saline or another isosmotic solution such as […] (dextrose) in water, commonly called D5W (see more below).
In another version of the simplest form, the MCC cocktail would be sodium-L-(+)-Lactate prepared from the dry, powdered salt in deionized water to the concentration intended [e.g., for an isosmotic solution: 154 mM lactate (plus 154 mM Na^+) total osmolarity 308 mOsm/l], and infused in the above-stated amounts to raise arterial [lactate] to the intended levels.
State of the art is to provide parenteral nutritive support to patients using 5% dextrose (D5W, glucose in water, vide supra). Because glucose (dextrose) has a molecular weight of 180, osmolality of D5W is 278 mM, which in the low range of normal plasma osmolality ([…]). Even though the glucose concentration in D5W is 50 times greater than homeostatic in plasma, in terms of its isosmotic effect with glucose alone being the only solute, D5W is isosmotic. Mixing equal isosmotic solutions such as equal volumes of 154 mM Sanguisal-L and D5W glucose will produce an osmolality in the high end of the normal range. As noted earlier, this slightly elevated osmolality because of sodium content will draw fluid from tissues into the vascular compartment, thus mitigating swelling due to injury (15).

[7] = lactate clamp procedure, exogenous lactate

Compound: CC(O)C(=O)OCC(COC(=O)C(C)O)OC(=O)C(C)O (stereo not drawn) [Glycerol tri-lactate, glycerol tri-lactate]
- dissociation of individual units in human plasma ([1]; lipases and esterases in human plasma): rapidly dissociate

Compound: CC(=O)C(=O)[O-].[Na+] [Na^+-Pyruvate, sodium-L-(+)-Pyruvate]
- arterial [lactate] [2]: 8 mM
- arterial [pyruvate] [2]: 3.5 mM

Compound: CC(O)C(=O)O (stereo not drawn) [lactate, 2-hydroxy-propionate]
- safety of route and amount of vascular lactate administration ([3]; approximately 3 mg/kg/min, vascular): safe
- blood pH [3, 7]: raises pH
- effects on plasma electrolytes [3, 7]: without major effects
- side effects ([3]; oral or intravenous administration): no apparent side effects except mild alkalosis

Compound: CC(=O)C(=O)O [pyruvate]
- conversion in circulation/blood [4]: rapidly converted to lactate
- stability in aqueous solutions [5]: spontaneous degradation

Compound: C[C@H](O)C(=O)[O-].[Na+] [sodium-L-(+)-Lactate]
- higher blood lactate levels seen/used without ill effects ([3]; sodium lactate MCC infusion): 6 mM
- total osmolarity ([6]; 154 mM lactate plus 154 mM Na+, isosmotic solution): 308 mOsm/l
- osmolality ([6]; 1.72% aqueous solution, isosmotic): 308 mOsm/l
- osmolality ([6]; 5.6% solution): 1,000 mOsm/l
- osmolality ([6]; 11.2% w/v MCC cocktail): ~2,000 mOsm/l

Compound: Arginyl lactate
- dissociation of individual units at neutral pH ([1]; neutral pH as exists in human plasma): dissociate spontaneously
